These results are taken from patent US20220249480A1, “APPLICATION OF FLUORO-SUBSTITUTED 2-AMINOTHIAZOLE-5-AROMATIC CARBOXAMIDE” (HUNAN WARRANT PHARMACEUTICAL CO., LTD, priority 2019, published 2022).

The target of one data set is T1, BTK (C481S) (Homo sapiens, UniProt Q06187, C481S).
T1 construct: purchased Signal Chem
The data set is described as follows: In vitro kinase inhibition activity (33P-ATP radiometric filter assay), BTK (C481S). In kind it is biochemical. The procedure: (§1) Test group: 50 μl DMSO was used to dissolve the compound of Formula I and Dasatinib, respectively, and the final drug concentration was 10 mM.
(§2) Starting concentration of drugs in the test group: 1 μM
(§3) Buffer solution conditions: 20 mM Hepes (pH 7.5), 10 mM MgCl2, 1 mM EGTA, 0.02% Brij35, 0.02 mg/ml BSA, 0.1 mM Na3VO4, 2 mM DTT, 1% DMSO.
(§4) Note: Required enzyme cofactor were added separately to each kinase reaction.
(§5) a) An indicated substrate was prepared in a freshly made reaction buffer.
(§6) b) Any required enzyme cofactors were added into the substrate solution described above.
(§7) c) The indicated kinase was added into the substrate solution and gently mixed.
(§8) d) The test drugs were added into the kinase reaction mixture using Echo 550.
(§9) e) ^33P-ATP (specific radioactivity 0.01 μCi/μl) was added into the reaction mixture, and the reaction was initiated.
(§10) g) The reaction was spotted onto P81 ion-exchange paper.
(§11) h) The filter was washed with 0.75% phosphoric acid.
(§12) i) The radioactive phosphorylated substrate remaining on the filter paper was measured.
(§13) Kinase activity data are expressed as the percent of the remaining kinase activity in the test samples compared with the reactions of the vehicle (dimethyl sulfoxide). IC50 values and curve fitting were obtained using Prism4 software (GraphPad).

The target of a further data set is T2, ABL1 (Homo sapiens, UniProt P00519).
T2 construct: purchased Invitrogen
T2 sequence (P00519 whole entry): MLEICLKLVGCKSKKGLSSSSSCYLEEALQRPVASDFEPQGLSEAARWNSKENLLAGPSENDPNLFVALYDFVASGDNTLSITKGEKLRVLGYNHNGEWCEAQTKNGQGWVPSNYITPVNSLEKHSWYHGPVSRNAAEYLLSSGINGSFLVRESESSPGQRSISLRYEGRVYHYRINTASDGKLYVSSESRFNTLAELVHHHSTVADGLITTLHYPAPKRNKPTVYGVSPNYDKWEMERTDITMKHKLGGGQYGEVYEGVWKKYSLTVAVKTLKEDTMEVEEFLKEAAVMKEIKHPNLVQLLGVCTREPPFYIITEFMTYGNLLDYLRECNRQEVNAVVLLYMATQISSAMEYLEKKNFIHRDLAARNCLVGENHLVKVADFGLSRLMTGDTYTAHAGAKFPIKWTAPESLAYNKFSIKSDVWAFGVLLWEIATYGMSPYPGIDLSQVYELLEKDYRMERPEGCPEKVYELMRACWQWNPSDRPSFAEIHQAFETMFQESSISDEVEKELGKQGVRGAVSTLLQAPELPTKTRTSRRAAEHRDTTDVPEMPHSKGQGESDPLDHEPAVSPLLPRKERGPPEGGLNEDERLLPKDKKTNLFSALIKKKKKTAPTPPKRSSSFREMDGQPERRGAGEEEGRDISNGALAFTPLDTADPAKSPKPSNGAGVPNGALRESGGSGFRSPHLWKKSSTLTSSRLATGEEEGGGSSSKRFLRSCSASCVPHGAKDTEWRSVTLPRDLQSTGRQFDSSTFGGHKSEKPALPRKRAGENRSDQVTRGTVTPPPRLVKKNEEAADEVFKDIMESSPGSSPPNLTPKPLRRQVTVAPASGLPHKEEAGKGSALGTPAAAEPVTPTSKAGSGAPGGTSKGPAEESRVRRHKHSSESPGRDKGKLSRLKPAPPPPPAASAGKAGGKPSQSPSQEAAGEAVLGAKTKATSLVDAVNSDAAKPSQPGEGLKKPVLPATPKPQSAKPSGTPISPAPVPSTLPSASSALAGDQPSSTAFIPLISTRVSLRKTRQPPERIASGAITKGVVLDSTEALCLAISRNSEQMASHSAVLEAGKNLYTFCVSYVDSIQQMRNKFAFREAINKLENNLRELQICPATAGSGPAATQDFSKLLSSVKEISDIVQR
The data set is described as follows: In vitro kinase inhibition activity (33P-ATP radiometric filter assay), ABL1. It is filed as biochemical. The procedure: as §1, §2, §3, §4, §5, §6, §7, §8, §9, §10, §11, §12, §13

Another data set concerns the target T3, BTK (Homo sapiens, UniProt Q06187).
T3 construct: purchased Invitrogen
The data set can be described thus: In vitro kinase inhibition activity (33P-ATP radiometric filter assay), BTK. In kind it is biochemical. The procedure: as §1, §2, §3, §4, §5, §6, §7, §8, §9, §10, §11, §12, §13

The next data set is described as follows: in vitro. To be noted: human, microsomes; for CLint scaled at 1 μM / half-life at 1 μM: pH 7.4. The procedure:
Test compound concentration: 1.0 μM
Buffer solution: 0.05 M phosphate buffer solution (pH 7.4)
Human liver microsomes: Corning® UltraPool™ HLM 150, 20 mg/mL
NADPH concentration: 1.0 mM
Total reaction volume: 850 μL
Incubation temperature: 37° C.
Pre-incubation time: 5 min (no NADPH added)
Sampling time: 0, 5, 10, 15, 20 and 30 min (0, 15 and 30 min for control group)
Sampling volume: 85 μL per time point
Test compounds: Verapamil, Dasatinib, and the compound of Formula I
a) Solutions of 10 mM test compounds in DMSO were diluted to 100 μM using acetonitrile:water (50:50).
c) 2.5 mM NADPH solution was formulated.
d) The liver microsomal protein, buffer solution, and test compound were pipetted sequentially into 1.5 ml incubation tubes according to the volume in the experimental design table, and incubated at 37° C. for 5 min with constant shaking.
e) 85 μL of the quenching reagent was added into a 250 μL quenching vial which was then placed on an ice bath.
f) The reaction was initiated by adding NADPH solution, and 85 μL sample was immediately taken and mixed evenly in the quenching vial with controlled incubation and quenching, this is referred to 0 min sampling point. The sample was capped, vortexed and centrifuged at 4° C.
g) The quenching solution was placed at 4° C. for 10 min for the precipitation of the protein.
h) The operations of other sampling points was similar to that of the 0 min sampling point.
i) The sample quenching reaction mixture solution was thoroughly mixed evenly and centrifuged at 14000 rpm for 10 min at room temperature.
j) The supernatant (˜100 μl) was pipetted for LC-MS analysis.
Instrument: Waters® ACQUITY HPLC-Xevo G2-XS QTof
Chromatographic column: ACQUITY UPLC® BEH C18 column 2.1×50 mm, 1.7 μm
Mobile phase: mobile phase A was 0.1% formic acid in water and mobile phase B was 0.1% formic acid in acetonitrile.
The amount of the parent compound at each time point was determined based on the peak area ratio (compound area/warfarin area).
The intrinsic clearance (CLint) was calculated by the following equation:
V(μL/mg)=volume of incubation (μL)/protein amount in the incubation (mg)

T1 sequence (Q06187 whole entry C481S): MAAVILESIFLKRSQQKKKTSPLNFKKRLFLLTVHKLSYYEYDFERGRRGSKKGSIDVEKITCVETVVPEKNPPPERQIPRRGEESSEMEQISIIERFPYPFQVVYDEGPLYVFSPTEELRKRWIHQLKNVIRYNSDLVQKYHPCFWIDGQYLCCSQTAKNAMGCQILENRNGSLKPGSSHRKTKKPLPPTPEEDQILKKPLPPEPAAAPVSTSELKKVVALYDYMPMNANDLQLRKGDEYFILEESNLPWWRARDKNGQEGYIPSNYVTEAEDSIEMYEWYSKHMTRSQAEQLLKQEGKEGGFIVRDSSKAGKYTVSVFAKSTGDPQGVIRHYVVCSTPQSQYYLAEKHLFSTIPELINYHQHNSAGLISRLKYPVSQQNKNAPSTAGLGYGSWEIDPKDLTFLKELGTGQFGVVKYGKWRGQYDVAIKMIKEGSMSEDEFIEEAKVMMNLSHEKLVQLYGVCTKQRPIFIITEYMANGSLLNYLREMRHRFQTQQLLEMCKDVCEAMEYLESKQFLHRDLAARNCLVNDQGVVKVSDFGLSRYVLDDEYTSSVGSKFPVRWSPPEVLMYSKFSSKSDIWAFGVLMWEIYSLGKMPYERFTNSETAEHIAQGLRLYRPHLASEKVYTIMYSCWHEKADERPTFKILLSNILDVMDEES
T3 sequence (Q06187 whole entry): as the sequence (Q06187 whole entry C481S) above, with S481C counted along it

`Cc1nc(Nc2ncc(C(=O)Nc3c(C)cc(F)cc3Cl)s2)cc(N2CCN(CCO)CC2)n1` [The compound of Formula I, N-(2-chloro-4-fluoro-6-methylphenyl)-2-[[6-[4-(2-hydroxyethyl)-1-piperazinyl]-2-methyl-4-pyrimidinyl]amino]-5-thiazolecarboxamide]: the IC50 against BTK (C481S) (BTK (C481S) 6 nM, pEY 0.2 mg/ml, ATP 10 μM, 15 min compound incubation, 2 h reaction) turned out to be 0.032 nM; against ABL1 (ABL1 0.1 nM, ABLtide 20 μM, ATP 10 μM, 15 min compound incubation, 2 h reaction), 0.0042 nM; at BTK (BTK 8 nM, pEY 0.2 mg/ml, ATP 10 μM, 15 min compound incubation, 2 h reaction), 0.157 nM. Also, the “Ratio Dasatinib/the compound of Formula I” value on BTK (C481S) (ratio of IC50 values, BTK (C481S)) is 3.53; at ABL1 (ratio of IC50 values, ABL1), 5.95; on BTK (ratio of IC50 values, BTK), 3.32. Further, in “in vitro”, the “Clearance” value worked out at 0.0426 min⁻¹. For the same compound, the CLint scaled at 1 μM in “in vitro” was 142 mL/min/kg. In “in vitro”, this compound came in with a half-life at 1 μM of 16.3 min.
`Cc1nc(Nc2ncc(C(=O)Nc3c(C)cccc3Cl)s2)cc(N2CCN(CCO)CC2)n1` [Dasatinib, reference compound]: in the data set “in vitro”, the “Clearance” value is 0.0635 min⁻¹, the CLint scaled at 1 μM was 211 mL/min/kg and the half-life at 1 μM worked out at 10.9 min.
